From patent US20220340598A1, “PYRAZOLOPYRIDINONE COMPOUNDS” (Janssen Pharmaceutica NV, priority 2017, published 2022)
Structures can show the parent of a compound that is named as a salt.

Columns and labels:
[1] = target: T1, NIH/3T3 cells overexpressing FGFR3 WT-TACC3 fusion protein (Homo sapiens, UniProt P22607); experiment: NIH/3T3 FGFR3 WT-TACC3 cell proliferation assay; assay type: cell-based; settings: 72-hr incubation, CellTiter Glo; read-out: NIH/3T3 FGFR3 WT-TACC3 CTG (IC50)
T1 construct: fused on or other part: Q9Y6A5 (Transforming acidic coiled-coil-containing protein 3)
T1 sequence (P22607 whole entry, change not shown, the tested form may be a part): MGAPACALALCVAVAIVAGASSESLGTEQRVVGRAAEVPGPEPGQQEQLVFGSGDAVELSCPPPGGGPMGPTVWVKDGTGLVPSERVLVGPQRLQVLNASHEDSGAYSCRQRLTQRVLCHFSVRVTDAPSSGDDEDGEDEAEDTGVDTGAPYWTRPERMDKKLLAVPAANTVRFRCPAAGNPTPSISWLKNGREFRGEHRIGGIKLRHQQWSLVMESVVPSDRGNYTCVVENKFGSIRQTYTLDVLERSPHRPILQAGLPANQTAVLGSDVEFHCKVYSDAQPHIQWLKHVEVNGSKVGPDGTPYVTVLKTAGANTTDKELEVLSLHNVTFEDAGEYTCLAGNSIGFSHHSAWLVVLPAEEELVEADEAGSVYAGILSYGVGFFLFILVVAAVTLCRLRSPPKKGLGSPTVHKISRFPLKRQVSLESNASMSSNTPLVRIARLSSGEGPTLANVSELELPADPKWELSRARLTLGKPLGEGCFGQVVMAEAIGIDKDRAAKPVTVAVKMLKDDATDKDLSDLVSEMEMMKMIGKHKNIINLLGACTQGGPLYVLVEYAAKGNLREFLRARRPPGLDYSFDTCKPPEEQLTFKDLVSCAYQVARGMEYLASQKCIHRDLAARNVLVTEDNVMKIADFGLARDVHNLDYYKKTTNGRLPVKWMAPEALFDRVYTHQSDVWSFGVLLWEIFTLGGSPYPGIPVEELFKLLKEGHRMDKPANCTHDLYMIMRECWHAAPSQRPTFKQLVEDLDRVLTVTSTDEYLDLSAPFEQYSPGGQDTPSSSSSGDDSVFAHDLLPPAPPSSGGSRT
Protocol: NIH/3T3 FGFR3 WT-TACC3 Cell Proliferation Assay
(§1) In day 1, 90 μL of cell suspension (NIH/3T3 cells overexpressing FGFR3 WT-TACC3 fusion protein) (total 30,000 cells per well in growth medium (DMEM containing 1% Glutamax, 10% FBS and 1% Pen/Strep)) was seeded in a 96-well plate and then incubated overnight at 37° C. and 5% CO2. In day 2, 10 μL of growth medium containing 10-fold stock solution of testing compound was added into cell cultures (9 dose points with 4× serial dilution, starting with 10 μM, 0.1% DMSO final). After 72-hr incubation at 37° C. and 5% CO2, in day 5 a volume of 50 μL CellTiter Glo (CTG) reagent was added into cell-containing 96-well plate and the plate was incubated at room temperature for 10 minutes before RLUs (relative light unit) were measured on a microplate reader with luminescence detection module. The RLU value was normalized to survival % and concentration-response curve was plotted using Prism to calculate IC50 (M), pIC50 (−log IC50) and HillSlope value.

[2] = target: T2, NIH/3T3 cells overexpressing FGFR3 V555M-TACC3 fusion protein (Homo sapiens, UniProt P22607, V555M, cells depend on it); experiment: NIH/3T3 FGFR3 V555M-TACC3 cell proliferation assay; assay type: cell-based; settings: 72-hr incubation, CellTiter Glo; read-out: NIH/3T3 FGFR3 V555M-TACC3 CTG (IC50)
T2 construct: fused on or other part: Q9Y6A5 (Transforming acidic coiled-coil-containing protein 3)
T2 sequence (P22607 whole entry V555M, the tested form may be a part): as the sequence (P22607 whole entry, change not shown, the tested form may be a part) above, with V555M counted along it
Protocol: NIH/3T3 FGFR3 V555M-TACC3 Cell Proliferation Assay
as §1, with “V555M-TACC3” for “WT-TACC3”

`COCC(Nc1c(-c2nc3ccc(OC)cc3[nH]2)c(=O)[nH]c2cn(C)nc12)c1ncccn1` (single isomer, unassigned) [Compound 12, (S*)-7-((2-methoxy-1-(pyrimidin-2-yl)ethyl)amino)-6-(6-methoxy-1H-benzo[d]imidazol-2-yl)-2-methyl-2H-pyrazolo[4,3-b]pyridin-5(4H)-one] showed a GI50 [1] of 0.106 µM and a GI50 [2] of 0.109 µM.

With `CCC(Nc1c(-c2nc3ccc(OC)cc3[nH]2)c(=O)[nH]c2cn(C)nc12)c1ncccn1` (single isomer, unassigned) [Compound 17, (R*)-6(6-Methoxy-1H-benzo[d]imidazol-2-yl)-2-methyl-7-((1-(pyrimidin-2-yl)propyl)amino)-2H-pyrazolo[4,3-b]pyridin-5(4H)-one] the GI50 [1] was 0.0276 µM and the GI50 [2] was 0.0239 µM.

For `COc1cc2[nH]c(-c3c(NC(c4ncccn4)C(C)C)c4nn(C)cc4[nH]c3=O)nc2cn1` (single isomer, unassigned) [Compound 18, (S*)-6-(6-methoxy-1H-imidazo[4,5-c]pyridin-2-yl)-2-methyl-7-((2-methyl-1-(pyrimidin-2-yl)propyl)amino)-2H-pyrazolo[4,3-b]pyridin-5(4H)-one], the GI50 [1] was 0.0719 µM and the GI50 [2] was 0.0515 µM.

`COc1cnc2nc(-c3c(NC(c4ncccn4)C(C)C)c4nn(C)cc4[nH]c3=O)[nH]c2c1` (single isomer, unassigned) [Compound 40, (S*)-6-(6-methoxy-1H-imidazo[4,5-b]pyridin-2-yl)-2-methyl-7-((2-methyl-1-(pyrimidin-2-yl)propyl)amino)-2,4-dihydro-5H-pyrazolo[4,3-b]pyridin-5-one] showed a GI50 [1] of 0.081 µM and a GI50 [2] of 0.0785 µM.

Work on `CCC(Nc1c(-c2nc3cc(OC)c(OC)cc3[nH]2)c(=O)[nH]c2cn(C)nc12)c1ncccn1` (single isomer, unassigned) [Compound 42, (S*)-6-(5,6-dimethoxy-1H-benzo[d]imidazol-2-yl)-2-methyl-7-((1-(pyrimidin-2-yl)propyl)amino)-2H-pyrazolo[4,3-b]pyridin-5(4H)-one] yielded a GI50 [2] of 0.0182 µM.

With `CCC(Nc1c(-c2nc3cc(OC)c(OC)cc3[nH]2)c(=O)[nH]c2cn(CC)nc12)c1ncccn1` (single isomer, unassigned) [Compound 44, (S*)-6-(5,6-dimethoxy-1H-benzo[d]imidazol-2-yl)-2-ethyl-7-((1-(pyrimidin-2-yl)propyl)amino)-2H-pyrazolo[4,3-b]pyridin-5(4H)-one] the GI50 [1] was 0.0317 µM and the GI50 [2] was 0.0516 µM.

With `COc1cc2nc(-c3c(NC(c4ncccn4)C4CC4)c4nn(C)cc4[nH]c3=O)[nH]c2cc1OC` (single isomer, unassigned) [Compound 46, (S*)-7-((cyclopropyl(pyrimidin-2-yl)methyl)amino)-6-(5,6-dimethoxy-1H-benzo[d]imidazol-2-yl)-2-methyl-2H-pyrazolo[4,3-b]pyridin-5(4H)-one] the GI50 [1] was 0.0227 µM and the GI50 [2] was 0.0276 µM.

For `CC(C)[C@H](Nc1c(-c2nc3ncc(N(C)C)cc3[nH]2)c(=O)[nH]c2cn(C)nc12)c1ncccn1` (stereo in doubt) [Compound 23, (S*)-6-(6-(dimethylamino)-1H-imidazo[4,5-b]pyridin-2-yl)-2-methyl-7-((2-methyl-1-(pyrimidin-2-yl)propyl)amino)-2H-pyrazolo[4,3-b]pyridin-5(4H)-one 0.14 formate], the GI50 [1] was 0.058 µM and the GI50 [2] was 0.0373 µM.

In the case of `COc1cc(F)c2nc(-c3c(N[C@@H](C)c4ncccn4)c4nn(C)cc4[nH]c3=O)[nH]c2c1` [Compound 2, (S)-6-(4-fluoro-6-methoxy-1H-benzo[d]imidazol-2-yl)-2-methyl-7-((1-(pyrimidin-2-yl)-ethyl)amino)-2H-pyrazolo[4,3-b]pyridin-5(4H)-one], the GI50 [1] is reported as 0.018 µM and the GI50 [2] is reported as 0.0161 µM.

Compound `COc1cnc2nc(-c3c(N[C@@H](C)c4ncccn4)c4nn(C)cc4[nH]c3=O)[nH]c2c1` [Compound 3, (S)-6-(6-methoxy-1H-imidazo[4,5-b]pyridin-2-yl)-2-methyl-7-((1-(pyrimidin-2-yl)ethyl)amino)-2H-pyrazolo[4,3-b]pyridin-5(4H)-one] has a GI50 [1] of 0.0234 µM and a GI50 [2] of 0.0326 µM.

Work on `CCn1cc2[nH]c(=O)c(-c3nc4ccc(OC)cc4[nH]3)c(N[C@@H](C)c3ncccn3)c2n1` [Compound 4, (S)-2-ethyl-6-(6-methoxy-1H-benzo[d]imidazol-2-yl)-7-((1-(pyrimidin-2-yl)ethyl)amino)-2H-pyrazolo[4,3-b]pyridin-5(4H)-one] yielded a GI50 [1] of 0.0219 µM and a GI50 [2] of 0.0318 µM.

`CCOc1cc2[nH]c(-c3c(N[C@@H](C)c4ncccn4)c4nn(C)cc4[nH]c3=O)nc2cc1OC` [Compound 7, (S)-6-(6-ethoxy-5-methoxy-1H-benzo[d]imidazol-2-yl)-2-methyl-7-((1-(pyrimidin-2-yl)ethyl)amino)-2,4-dihydro-5H-pyrazolo[4,3-b]pyridin-5-one] was tested, and the GI50 [1] was 0.00603 µM and the GI50 [2] was 0.00636 µM.

`CCOc1cc2[nH]c(-c3c(N[C@@H](C)c4ncccn4)c4nn(CC)cc4[nH]c3=O)nc2cc1OC` [Compound 8, (S)-6-(6-ethoxy-5-methoxy-1H-benzo[d]imidazol-2-yl)-2-ethyl-7-((1-(pyrimidin-2-yl)ethyl)amino)-2H-pyrazolo[4,3-b]pyridin-5(4H)-one] was tested, and the GI50 [1] was 0.0191 µM and the GI50 [2] was 0.023 µM.

`CC[C@H](Nc1c(-c2nc3cnc(N(C)C)cc3[nH]2)c(=O)[nH]c2cn(C)nc12)c1ncccn1` [Compound 22, (S)-6-(6-(dimethylamino)-1H-imidazo[4,5-c]pyridin-2-yl)-2-methyl-7-((1-(pyrimidin-2-yl)propyl)amino)-2H-pyrazolo[4,3-b]pyridin-5(4H)-one] showed a GI50 [1] of 0.0244 µM and a GI50 [2] of 0.0246 µM.

Compound `COc1cc(OC)c2nc(-c3c(N[C@@H](C)c4ncccn4)c4nn(C)cc4[nH]c3=O)[nH]c2c1` [Compound 29, (S)-6-(4,6-Dimethoxy-1H-benzo[d]imidazol-2-yl)-2-methyl-7-((1-(pyrimidin-2-yl)ethyl)amino)-2H-pyrazolo[4,3-b]pyridin-5(4H)-one] has a GI50 [1] of 0.016 µM and a GI50 [2] of 0.0208 µM.

`CCn1cc2[nH]c(=O)c(-c3nc4c(OC)cc(OC)cc4[nH]3)c(N[C@@H](C)c3ncccn3)c2n1` [Compound 31, (S)-6-(4,6-dimethoxy-1H-benzo[d]imidazol-2-yl)-2-ethyl-7-((1-(pyrimidin-2-yl)ethyl)amino)-2H-pyrazolo[4,3-b]pyridin-5(4H)-one] was tested, and the GI50 [2] was 0.0645 µM.

`CCn1cc2[nH]c(=O)c(-c3nc4cc(OC)c(OCCOC)cc4[nH]3)c(N[C@@H](C)c3ncccn3)c2n1` [Compound 38, (S)-2-ethyl-6-(5-methoxy-6-(2-methoxyethoxy)-1H-benzo[d]imidazol-2-yl)-7-((1-(pyrimidin-2-yl)ethyl)amino)-2H-pyrazolo[4,3-b]pyridin-5(4H)-one] gave a GI50 [2] of 0.0373 µM.

For `CCn1cc2[nH]c(=O)c(-c3nc4cc(OC)c(OC)cc4[nH]3)c(N[C@@H](C)c3ccccn3)c2n1` [Compound 51, (S)-6-(5,6-dimethoxy-1H-benzo[d]imidazol-2-yl)-2-ethyl-7-((1-(pyridin-2-yl)ethyl)amino)-2,4-dihydro-5H-pyrazolo[4,3-b]pyridin-5-one], the GI50 [2] was 0.0311 µM.

For “(S)-6-(5,6-Dimethoxy-1H-benzo[d]imidazol-2-yl)-2-ethyl-7-((1-(pyrimidin-2-yl)ethyl)-amino)-2H-pyrazolo[4,3-b]pyridin-5(4H)-one [Compound 6]”, the GI50 [2] was 0.0296 µM.
